# Tested on: HCT116 colorectal cancer cells
# Test: Cisplatin sensitization assay (96 h cell viability MTS);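 further: compound concentration needed to lower the Cisplatin-alone IC50 by a set fold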
# Type: cell-based
# Conditions: 96 h MTS, compound plus Cisplatin
# Outline: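 Cisplatin and compound are dosed at the same time, both serially diluted 2-fold from 10 μM final across a full matrix. Plates sit at 37° C in 5% CO2 for 96 h before MTS addition.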
row,Compound,Cisplatin Sensitization Assay
1,"Nc1nn2cc(F)cnc2c1C(=O)Nc1cncc(F)c1N1CCC(C(=O)N2CCN(C3CCC3)CC2)CC1 [I-G-35, 2-amino-N-(4-(4-(4-cyclobutylpiperazine-1-carbonyl)piperidin-1-yl)-5-fluoropyridin-3-yl)-6-fluoropyrazolo[1,5-a]pyrimidine-3-carboxamide]",+++ (Compounds with a Cisplatin sensitization value of <0.02 μM are marked with “+++.”)
2,"Cc1nccn1-c1ccncc1NC(=O)c1c(N)nn2cc(F)cnc12 [I-N-28, 2-amino-6-fluoro-N-(4-(2-methyl-1H-imidazol-1-yl)pyridin-3-yl)pyrazolo[1,5-a]pyrimidine-3-carboxamide]",+++ (Compounds with a Cisplatin sensitization value of <0.02 μM are marked with “+++.”)
3,"Cc1ncn(-c2ccncc2NC(=O)c2c(N)nn3cc(F)cnc23)c1C [I-N-269, 2-amino-N-(4-(4,5-dimethyl-1H-imidazol-1-yl)pyridin-3-yl)-6-fluoropyrazolo[1,5-a]pyrimidine-3-carboxamide]",++ (Compounds with a Cisplatin sensitization value >0.02 μM but <0.2 μM are marked with “++.”)
4,"Nc1nn2cc(F)cnc2c1C(=O)Nc1cnccc1N1CCCC2(COC2)C1 [I-N-253, N-(4-(2-oxa-6-azaspiro[3.5]nonan-6-yl)pyridin-3-yl)-2-amino-6-fluoropyrazolo[1,5-a]pyrimidine-3-carboxamide]",+++ (Compounds with a Cisplatin sensitization value of <0.02 μM are marked with “+++.”)
5,"CN1CCN(C2CCN(c3c(F)cncc3NC(=O)c3c(N)nn4cc(F)cnc34)CC2)C(=O)C1 [I-N-151, 2-amino-6-fluoro-N-(5-fluoro-4-(4-(4-methyl-2-oxopiperazin-1-yl)piperidin-1-yl)pyridin-3-yl)pyrazolo[1,5-a]pyrimidine-3-carboxamide]",+ (Compounds with a Cisplatin sensitization value >0.2 μM but <5 μM are marked with “+.”)
6,"Nc1nn2cc(Cl)cnc2c1C(=O)Nc1cnccc1OCC(F)(F)F [I-O-59, 2-amino-6-chloro-N-(4-(2,2,2-trifluoroethoxy)pyridin-3-yl)pyrazolo[1,5-a]pyrimidine-3-carboxamide]",+++ (Compounds with a Cisplatin sensitization value of <0.02 μM are marked with “+++.”)
7,"Nc1nn2cc(F)cnc2c1C(=O)Nc1cncc2c1CCNC2 [I-C-7, 2-amino-6-fluoro-N-(5,6,7,8-tetrahydro-2,7-naphthyridin-4-yl)pyrazolo[1,5-a]pyrimidine-3-carboxamide]",++ (Compounds with a Cisplatin sensitization value >0.02 μM but <0.2 μM are marked with “++.”)
8,"Cc1ccncc1-c1ccncc1NC(=O)c1c(N)nn2cc(F)cnc12 [I-C-30, 2-amino-6-fluoro-N-(4-methyl-[3,4′-bipyridin]-3′-yl)pyrazolo[1,5-a]pyrimidine-3-carboxamide]",+++ (Compounds with a Cisplatin sensitization value of <0.02 μM are marked with “+++.”)
9,"CN1CCN(c2c(Cl)cncc2NC(=O)c2c(N)nn3cc(F)cnc23)CC1 [I-N-85, 2-amino-N-(5-chloro-4-(4-methylpiperazin-1-yl)pyridin-3-yl)-6-fluoropyrazolo[1,5-a]pyrimidine-3-carboxamide]",++ (Compounds with a Cisplatin sensitization value >0.02 μM but <0.2 μM are marked with “++.”)
10,"NCC1CCN(c2ccncc2NC(=O)c2c(N)nn3cc(Cl)cnc23)CC1 [I-N-91, 2-amino-N-(4-(4-(aminomethyl)piperidin-1-yl)pyridin-3-yl)-6-chloropyrazolo[1,5-a]pyrimidine-3-carboxamide]",++ (Compounds with a Cisplatin sensitization value >0.02 μM but <0.2 μM are marked with “++.”)
11,"Cc1nnc(C2CCN(c3ccncc3NC(=O)c3c(N)nn4cc(F)cnc34)CC2)o1 [I-N-265, 2-amino-6-fluoro-N-(4-(4-(5-methyl-1,3,4-oxadiazol-2-yl)piperidin-1-yl)pyridin-3-yl)pyrazolo[1,5-a]pyrimidine-3-carboxamide]",++ (Compounds with a Cisplatin sensitization value >0.02 μM but <0.2 μM are marked with “++.”)
12,"Nc1nn2cc(Cl)cnc2c1C(=O)Nc1cnccc1OC1CCCNC1 (stereo not drawn) [I-O-75, 2-amino-6-chloro-N-(4-(piperidin-3-yloxy)pyridin-3-yl)pyrazolo[1,5-a]pyrimidine-3-carboxamide]",++ (Compounds with a Cisplatin sensitization value >0.02 μM but <0.2 μM are marked with “++.”)
13,"CN1CCC(N(C)S(=O)(=O)C2CCN(c3c(F)cncc3NC(=O)c3c(N)nn4cc(F)cnc34)CC2)CC1 [I-N-148, 2-amino-6-fluoro-N-(5-fluoro-4-(4-(N-methyl-N-(1-methylpiperidin-4-yl)sulfamoyl)piperidin-1-yl)pyridin-3-yl)pyrazolo[1,5-a]pyrimidine-3-carboxamide]",+++ (Compounds with a Cisplatin sensitization value of <0.02 μM are marked with “+++.”)
14,"Nc1nn2cc(F)cnc2c1C(=O)Nc1cnccc1O[C@H]1CCCN(C2COC2)C1 [I-O-9, (S)-2-amino-6-fluoro-N-(4-((1-(oxetan-3-yl)piperidin-3-yl)oxy)pyridin-3-yl)pyrazolo[1,5-a]pyrimidine-3-carboxamide]",++ (Compounds with a Cisplatin sensitization value >0.02 μM but <0.2 μM are marked with “++.”)
15,"CN1CC(NC(=O)C2CCN(c3c(F)cncc3NC(=O)c3c(N)nn4cc(F)cnc34)CC2)C1 [I-G-23, 2-amino-6-fluoro-N-(5-fluoro-4-(4-((1-methylazetidin-3-yl)carbamoyl)piperidin-1-yl)pyridin-3-yl)pyrazolo[1,5-a]pyrimidine-3-carboxamide]",+++ (Compounds with a Cisplatin sensitization value of <0.02 μM are marked with “+++.”)
16,"CN1CCC[C@@H]1COc1ccncc1NC(=O)c1c(N)nn2cc(Cl)cnc12 [I-O-49, (R)-2-amino-6-chloro-N-(4-((1-methylpyrrolidin-2-yl)methoxy)pyridin-3-yl)pyrazolo[1,5-a]pyrimidine-3-carboxamide]",+ (Compounds with a Cisplatin sensitization value >0.2 μM but <5 μM are marked with “+.”)
17,"Nc1nn2cc(F)cnc2c1C(=O)Nc1cncc(F)c1N1CCC(S(=O)(=O)N2CCOCC2)CC1 [I-N-155, 2-amino-6-fluoro-N-(5-fluoro-4-(4-(morpholinosulfonyl)piperidin-1-yl)pyridin-3-yl)pyrazolo[1,5-a]pyrimidine-3-carboxamide]",+++ (Compounds with a Cisplatin sensitization value of <0.02 μM are marked with “+++.”)
18,"Nc1nn2cc(Cl)cnc2c1C(=O)Nc1cnccc1O[C@H]1CCCNC1 [I-O-74, (S)-2-amino-6-chloro-N-(4-(piperidin-3-yloxy)pyridin-3-yl)pyrazolo[1,5-a]pyrimidine-3-carboxamide]",++ (Compounds with a Cisplatin sensitization value >0.02 μM but <0.2 μM are marked with “++.”)
19,"Nc1nn2cc(F)cnc2c1C(=O)Nc1cnccc1N1CCC(S(=O)(=O)N2CCOCC2)CC1 [I-N-170, 2-amino-6-fluoro-N-(4-(4-(morpholinosulfonyl)piperidin-1-yl)pyridin-3-yl)pyrazolo[1,5-a]pyrimidine-3-carboxamide]",+++ (Compounds with a Cisplatin sensitization value of <0.02 μM are marked with “+++.”)
20,"N#CCc1cnc2c(C(=O)Nc3cnccc3N3CCNCC3)c(N)nn2c1 [I-N-89, 2-amino-6-(cyanomethyl)-N-(4-(piperazin-1-yl)pyridin-3-yl)pyrazolo[1,5-a]pyrimidine-3-carboxamide]",++ (Compounds with a Cisplatin sensitization value >0.02 μM but <0.2 μM are marked with “++.”)
21,"Nc1nn2cc(F)cnc2c1C(=O)Nc1cncc(F)c1N1CCN(C(=O)CN2CCC2)CC1 [I-N-160, 2-amino-N-(4-(4-(2-(azetidin-1-yl)acetyl)piperazin-1-yl)-5-fluoropyridin-3-yl)-6-fluoropyrazolo[1,5-a]pyrimidine-3-carboxamide]",+++ (Compounds with a Cisplatin sensitization value of <0.02 μM are marked with “+++.”)
22,"N#CCc1cnc2c(C(=O)Nc3cnccc3OC3CCCC3)c(N)nn2c1 [I-O-43, 2-amino-6-(cyanomethyl)-N-(4-(cyclopentyloxy)pyridin-3-yl)pyrazolo[1,5-a]pyrimidine-3-carboxamide]",+++ (Compounds with a Cisplatin sensitization value of <0.02 μM are marked with “+++.”)
23,"Nc1nn2cc(F)cnc2c1C(=O)Nc1cnccc1O[C@H]1CN2CCC1CC2 [I-O-5, (R)-2-amino-6-fluoro-N-(4-(quinuclidin-3-yloxy)pyridin-3-yl)pyrazolo[1,5-a]pyrimidine-3-carboxamide]",+++ (Compounds with a Cisplatin sensitization value of <0.02 μM are marked with “+++.”)
24,"Nc1nn2cc(F)cnc2c1C(=O)Nc1cncc(F)c1N1CCC(C(=O)N2CC3(COC3)C2)CC1 [I-G-14, N-(4-(4-(2-oxa-6-azaspiro[3.3]heptane-6-carbonyl)piperidin-1-yl)-5-fluoropyridin-3-yl)-2-amino-6-fluoropyrazolo[1,5-a]pyrimidine-3-carboxamide]",+++ (Compounds with a Cisplatin sensitization value of <0.02 μM are marked with “+++.”)
25,"Cc1nc(C(=O)N2CCN(C)CC2)ccc1-c1ccncc1NC(=O)c1c(N)nn2cc(F)cnc12 [I-C-39, 2-amino-6-fluoro-N-(2-methyl-6-(4-methylpiperazine-1-carbonyl)-[3,4′-bipyridin]-3′-yl)pyrazolo[1,5-a]pyrimidine-3-carboxamide]",+++ (Compounds with a Cisplatin sensitization value of <0.02 μM are marked with “+++.”)
26,"COCCN1CCN(c2c(F)cncc2NC(=O)c2c(N)nn3cc(F)cnc23)CC1 [I-N-127, 2-amino-6-fluoro-N-(5-fluoro-4-(4-(2-methoxyethyl)piperazin-1-yl)pyridin-3-yl)pyrazolo[1,5-a]pyrimidine-3-carboxamide]",+++ (Compounds with a Cisplatin sensitization value of <0.02 μM are marked with “+++.”)
27,"Nc1nn2cc(F)cnc2c1C(=O)Nc1cnccc1N1CCC(C(=O)N2CCCC2)CC1 [I-G-83, 2-amino-6-fluoro-N-(4-(4-(pyrrolidine-1-carbonyl)piperidin-1-yl)pyridin-3-yl)pyrazolo[1,5-a]pyrimidine-3-carboxamide]",+++ (Compounds with a Cisplatin sensitization value of <0.02 μM are marked with “+++.”)

# Source: patent US10787452B2 (Vertex Pharmaceuticals Incorporated, priority 2012, dated 2020)
